Assay results reported in US11046691B1 (IDEAYA BIOSCIENCES, INC., priority 2018, dated 2021).

Biological target: hMAT2A (Homo sapiens (Human), UniProt P31153)
Assay: Phosphate Sensor Fluorescence Assay (MAT2A enzyme inhibition)
Format: biochemical
Settings: L-methionine 500 uM, ATP 500 uM
Outline: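 Recombinant MAT2A preincubated 15 min at room temperature with compound, then reacted 1 h at room temperature with 500 uM L-methionine and 500 uM ATP in Tris pH 7.5 buffer containing PNP/7-MEG.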

hMAT2A, sequence (P31153 whole entry): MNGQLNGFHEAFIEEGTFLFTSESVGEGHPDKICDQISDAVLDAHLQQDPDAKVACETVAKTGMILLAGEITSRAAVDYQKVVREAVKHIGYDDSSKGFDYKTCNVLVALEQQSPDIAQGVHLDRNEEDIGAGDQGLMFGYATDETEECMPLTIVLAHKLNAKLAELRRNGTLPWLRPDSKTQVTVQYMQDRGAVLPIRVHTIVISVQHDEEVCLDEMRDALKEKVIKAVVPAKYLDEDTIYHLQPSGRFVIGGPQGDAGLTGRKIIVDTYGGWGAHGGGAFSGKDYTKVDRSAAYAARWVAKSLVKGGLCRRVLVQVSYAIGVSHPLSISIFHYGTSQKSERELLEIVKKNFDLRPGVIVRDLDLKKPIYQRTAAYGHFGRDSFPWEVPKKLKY

| SMILES | IC50 (class symbols) | IC50 (numeric bound) |
| --- | --- | --- |
| CNc1nc(=O)n(-c2ncccc2Cl)c2nc(C(F)(F)F)ccc12 [Example 261, 1-(3-chloro(2-pyridyl))-4-(methyl-amino)-7-(trifluoromethyl)pyrido[2,3-d]-pyrimidin-2(1H)-one] | < 200 nM |  |
| CNc1nc(=O)n(Cc2c[nH]cn2)c2cc(Cl)ccc12 [Example 262, 7-chloro-1-(imidazol-4-ylmethyl)-4-(methylamino)hydroquinazolin-2-one] | < 200 nM |  |
| Cc1ncccc1-n1c(=O)nc(N)c2ccc(C(F)(F)F)nc21 [Example 263] | < 200 nM |  |
| CS(=O)(=O)CCNc1nc(=O)n(-c2ccccc2Cl)c2nc(C(F)(F)F)ccc12 [Example 264, 1-(2-chlorophenyl)-4-{[2-(methyl-sulfonyl)ethyl]amino}-7-(trifluoro-methyl)pyrido [2,3-d]pyrimidin-2 (1H)-one] | < 200 nM |  |
| O=c1nc(NCC2(CO)CC2)c2ccc(C(F)(F)F)nc2n1-c1ccccc1Cl [Example 265] | < 200 nM |  |
| CN(C)CCCNc1nc(=O)n(-c2ccccc2Cl)c2nc(C(F)(F)F)ccc12 [Example 266, 4-{[3-(dimethylamino)propyl]amino}-1-(2-ch1orophenyl)-7-(trifluoromethyl)-pyrido[2,3-d]pyrimidin-2(1H)-one] | 1000 to 10000 nM |  |
| CN(C)CCNc1nc(=O)n(-c2ccccc2Cl)c2nc(C(F)(F)F)ccc12 [Example 267, 4-{[2-(dimethylamino)ethyl]amino}-1-(2-chlorophenyl)-7-(trifluoromethyl)-pyrido[2,3-d]pyrimidin-2(1H)-one] | 1000 to 10000 nM |  |
| C[C@]1(O)C[C@@H](Nc2nc(=O)n(-c3ccccc3Cl)c3nc(C(F)(F)F)ccc23)C1 [Example 268, 1-(2-chlorophenyl)-4-(((1s,3s)-3-hydroxy-3-methylcyclobutyl)amino)-7-(trifluoromethyl)pyrido[2,3-d]pyrimidin-2(1H)-one] | < 200 nM |  |
| C[C@]1(Nc2nc(=O)n(-c3ccccc3Cl)c3nc(C(F)(F)F)ccc23)C[C@@H](O)C1 [Example 269, 1-(2-chlorophenyl)-4-(((1s,3s)-3-hydroxy-1-methylcyclobutyl)amino)-7-(trifluoromethyl)pyrido[2,3-d]pyrimidin-2(1H)-one] | < 200 nM |  |
| CO[C@H]1C[C@@H](Nc2nc(=O)n(-c3ccccc3Cl)c3nc(C(F)(F)F)ccc23)C1 [Example 270, 1-(2-chlorophenyl)-4-(((1s,3s)-3-methoxycyclobutyl)amino)-7-(trifluoro-methyl)pyrido[2,3-d]pyrimidin-2(1H)-one] | < 200 nM |  |
| O=c1nc(NCC2CCO2)c2ccc(C(F)(F)F)nc2n1-c1ccccc1Cl (centres unmarked) [Example 271, 1-(2-chlorophenyl)-4-[(oxetan-2-ylmethyl)amino]-7-(trifluoromethyl)-pyrido[2,3-d]pyrimidin-2(1H)-one] | < 200 nM |  |
| [2H]C([2H])([2H])Nc1nc(=O)n(-c2ccccc2C)c2nc(C(F)(F)F)ccc12 [Example 272, 4-((methyl-d3)amino)-1-(2-methyl-phenyl)-7-(trifluoromethyl)pyrido[2,3-d]pyrimidin-2(1H)-one] | < 200 nM |  |
| O=c1nc(NC2COC2)c2ccc(C(F)(F)F)nc2n1-c1ccccc1Cl [Example 274, 1-(2-chlorophenyl)-4-(oxetan-3-yl-amino)-7-(trifluoromethyl)pyrido[2,3-d]pyrimidin-2(1H)-one] | < 200 nM |  |
| O=c1nc(N[C@H]2C[C@](O)(C(F)(F)F)C2)c2ccc(C(F)(F)F)nc2n1-c1ccccc1Cl [Example 275, 4-{[(cis)-3-hydroxy-3-(trifluoromethyl)-cyclobutyl]amino}-1-(2-chlorophenyl)-7-(trifluoromethyl)pyrido[2,3-d]-pyrimidin-2(1H)-one] | 500 to 1000 nM |  |
| N#CC1(Nc2nc(=O)n(-c3ccccc3Cl)c3nc(C(F)(F)F)ccc23)CCC1 [Example 277, 1-((1-(2-chlorophenyl)-2-oxo-7-(trifluoromethyl)-1,2-dihydropyrido[2,3-d]pyrimidin-4-yl)amino)cyclobutane-1-carbonitrile] | < 200 nM |  |
| N#CCCNc1nc(=O)n(-c2ccccc2Cl)c2nc(C(F)(F)F)ccc12 [Example 278, 3-((1-(2-chlorophenyl)-2-oxo-7-(trifluoro-methyl)-1,2-dihydropyrido-[2,3-d]pyrimidin-4-yl)amino)-propanenitrile] | < 200 nM |  |
| O=c1nc(N2CC[C@@H](O)C2)c2ccc(Cl)cc2n1-c1ccc2[nH]ncc2c1 [Example 279, (R)-7-chloro-4-(3-hydroxypyrrolidin-1-yl)-1-(1H-indazol-5-yl)quinazolin-2(1H)-one] | < 200 nM |  |
| CN(C)c1nc(=O)n(-c2ccc3[nH]ncc3c2)c2cc(Cl)ccc12 [Example 280, 7-chloro-4-(dimethylamino)-1-(1H-indazol-5-yl)quinazolin-2(1H)-one] | < 200 nM |  |
| O=c1nc(N2CC[C@@H](O)C2)c2ccc(Cl)cc2n1-c1ccc2[nH]cnc2c1 [Example 281, (R)-7-chloro-4-(3-hydroxypyrrolidin-1-yl)-1-(1H-benzimidazol-5-yl)quinazolin-2(1H)-one] | < 200 nM |  |
| Cc1ncccc1-n1c(=O)nc(NCC(F)F)c2ccc(C(F)(F)F)cc21 [Example 282, 4-((2,2-difluoroethyl)amino)-1-(2-methylpyridin-3-yl)-7-(trifluoromethyl)-quinazolin-2(1H)-one] | < 200 nM |  |
| Cc1ncccc1-n1c(=O)nc(N2CC[C@@H](O)C2)c2ccc(C(F)(F)F)cc21 [Example 283] | < 200 nM |  |

| SMILES | IC50 (class symbols) | IC50 (numeric bound) |
| --- | --- | --- |
| CNc1nc(=O)n(-c2cccnc2C)c2cc(C(F)(F)F)ccc12 [Example 284] | < 200 nM |  |
| Cc1ncccc1-n1c(=O)nc(N)c2ccc(C(F)(F)F)cc21 [Example 285] | < 200 nM |  |
| O=c1nc(N2CCOCC2)c2ccc(C(F)(F)F)nc2n1-c1ccccc1Cl [Example 286, 1-(2-chlorophenyl)-4-morpholin-4-yl-7-(trifluoromethyl)pyrido[2,3-d]pyrimidin-2(1H)-one] | < 200 nM |  |
| NC(=O)CNc1nc(=O)n(-c2ccccc2Cl)c2nc(C(F)(F)F)ccc12 [Example 287, 2-((1-(2-chlorophenyl)-2-oxo-7-(trifluoromethyl)-1,2-dihydropyrido[2,3-d]pyrimidin-4-yl)amino)acetamide] | < 200 nM |  |
| O=c1[nH]c(=O)n(-c2ccccc2Cl)c2nc(C(F)(F)F)ccc12 [Example 288, 1-(2-chlorophenyl)-4-hydroxy-7-(trifluoromethyl)hydropyridino[2,3-d]-pyrimidin-2-one] |  | > 10000 nM |
| O=c1nc(O)c2c(C3=CCNC3)cc(Cl)cc2n1-c1ccccc1 [Example 289, 7-chloro-5-(2,5-dihydro-1H-pyrrol-3-yl)-4-hydroxy-1-phenylquinazolin-2(1H)-one] |  | > 10000 nM |
| CC(C)(C)OC(=O)N1CC=C(c2cc(Cl)cc3c2c(O)nc(=O)n3-c2ccccc2)C1 [Example 290, tert-butyl 3-(7-chloro-4-hydroxy-2-oxo-1-phenyl-1,2-dihydroquinazolin-5-yl)-2,5-dihydro-1H-pyrrole-1-carboxylate] |  | > 10000 nM |
| O=c1nc(O)c2c(-c3ccncc3)cc(Cl)cc2n1-c1ccccc1 [Example 291, 7-chloro-4-hydroxy-1-phenyl-5-(pyridin-4-yl)quinazolin-2(1H)-one] |  | > 10000 nM |
| C[C@H](O)CNc1nc(=O)n(-c2ccccc2Cl)c2nc(C(F)(F)F)ccc12 [Example 293, 4-[((2S)-2-hydroxypropyl)amino]-1-(2-chlorophenyl)-7-(trifluoromethyl)-pyrido[2,3-d]pyrimidin-2(1H)-one] | < 200 nM |  |
| C[C@@H](O)CNc1nc(=O)n(-c2ccccc2Cl)c2nc(C(F)(F)F)ccc12 [Example 294, 4-[((2R)-2-hydroxypropyl)amino]-1-(2-chlorophenyl)-7-(trifluoromethyl)-pyrido[2,3-d]pyrimidin-2(1H)-one] | < 200 nM |  |
| O=c1nc(NCC2(O)CC2)c2ccc(C(F)(F)F)nc2n1-c1ccccc1Cl [Example 295, 1-(2-chlorophenyl)-4-{[(hydroxycyclo-propyl)methyl]amino}-7-(trifluoro-methyl)-pyrido[2,3-d]pyrimidin-2(1H)-one] | < 200 nM |  |
| O=c1nc(NCCO)c2ccc(C(F)(F)F)nc2n1-c1ccccc1Cl [Example 296, 1-(2-chlorophenyl)-4-[(2-hydroxy-Iethyl)amino]-7-(trifluoromethyl) pyrido[2,3-d]pyrimidin-2(1H)-one] | < 200 nM |  |
| O=c1nc(NC23CC(O)(C2)C3)c2ccc(C(F)(F)F)nc2n1-c1ccccc1Cl [Example 297, 1-(2-chlorophenyl)-4-[(3-hydroxy-bicyclo[1.1.1]pentyl)amino]-7-(trifluoro-methyl)-pyrido[2,3-d]pyrimidin-2(1H)-one] | < 200 nM |  |
| O=c1nc(N[C@H]2C[C@@](O)(C(F)(F)F)C2)c2ccc(C(F)(F)F)nc2n1-c1ccccc1Cl [Example 299] | 200 to 500 nM |  |
| C[C@]1(O)C[C@H](Nc2nc(=O)n(-c3ccccc3Cl)c3nc(C(F)(F)F)ccc23)C1 [Example 300, 4-[((trans)-3-hydroxy-3-methylcyclo-butyl)amino]-1-(2-chlorophenyl)-7-(trifluoromethyl)pyrido[2,3-d]pyrimidin-2(1H)-one] | < 200 nM |  |
| CO[C@H]1C[C@H](Nc2nc(=O)n(-c3ccccc3Cl)c3nc(C(F)(F)F)ccc23)C1 [Example 301] | < 200 nM |  |
| CNc1nc(=O)n(-c2ccccc2Cl)c2cc(C(F)(F)F)c(Br)cc12 [Example 302, 6-bromo-1-(2-chlorophenyl)-4-(methylamino)-7-(trifluoromethyl)-quinazolin-2(1H)-one] | < 200 nM |  |
| CNc1nc(=O)n(-c2ccccc2)c2cc(C(F)(F)F)c(Br)cc12 [Example 303, 6-bromo-4-(methylamino)-1-phenyl-7-(trifluoromethyl)quinazolin-2(1H)-one] | < 200 nM |  |
| CNc1nc(=O)n(-c2ccccc2Cl)c2cc(C(F)(F)F)c(F)cc12 [Example 304, 1-(2-chlorophenyl)-6-fluoro-4-(methyl-amino)-7-(trifluoromethyl)hydro-quinazolin-2-one] | < 200 nM |  |
| O=c1[nH]c(=O)n(-c2cccc3nc[nH]c23)c2cc(Cl)ccc12 [Example 305, 1-benzimidazol-7-yl-7-chloro-1,3-dihydroquinazoline-2,4-dione] |  | > 10000 nM |
